Patent publication US20020110808A1, “Toxicant-induced differential gene expression” (priority 2000, published 2002)

How the values were obtained:
HepG2 cells [1] = test: Annexin V assay for apoptosis; format: cell-based, human; details: 20 mM acetaminophen, 16 mM caffeine, 100 mM thioacetamide, by 24 hr
Procedure: Translocation of phosphatidyl serine to the cell membrane was measured by affinity binding to annexin V using the Apotest Biotin kit from NeXins Research B.V. (The Netherlands). HepG2 cells were cultured as above and plated into Cytostar-T scintillating microplates (Amersham) at 10^6 cells/well and grown for 3 days prior to treatment as above. Following treatment, 50 μl/well of 4 μg/ml annexin V-biotin in 2× Ca^2+ binding buffer was added. Wells with no annexin V-biotin were included as background controls. Following incubation for 20 min at room temperature, 50 μl/well of 0.5 μCi [^35S] streptavidin (Amersham) in 2× Ca^2+ binding buffer was added and incubated for 2 hrs at room temperature with gentle shaking. Plates were spun down at 1,100 rpm for 8 min and read on a Packard TopCount instrument (see e.g., Vermes et al., J. Immunol. Methods 185:81-93 (1995)).

HepG2 cells [2] = test: Cell morphology after toxicant treatment; details: 24 hr, 20 mM acetaminophen, 16 mM caffeine or 100 mM thioacetamide
Procedure: Depending on the desired exposure time, cell treatments began 3 or 4 days after splitting or plating. At this time, the cells were near or at confluency. […] Cell treatments were at 37° C.
The general strategy used for identifying toxicant-induced gene expression changes is outlined in Table 2.

CC(=N)S [thioacetamide]
Apoptosis, annexin V assay (HepG2 cells [1]): induces the greatest response
Cell morphology of treated cells (HepG2 cells [2]): somewhat dense and grainy
